Measured values taken from patent US9546173B2 (Novartis AG, priority 2012, dated 2017).

target: activated ERK2 (Homo sapiens (Human), UniProt P28482); assay: Activated ERK2 kinase assay (AlphaScreen, ERKtide peptide phosphorylation); assay type: biochemical; settings: 0.25 nM ERK2, 200 nM ERKtide peptide, 35 μM ATP, 30 min preincubation; read-out: ERK2 IC50
Sequence (P28482 whole entry): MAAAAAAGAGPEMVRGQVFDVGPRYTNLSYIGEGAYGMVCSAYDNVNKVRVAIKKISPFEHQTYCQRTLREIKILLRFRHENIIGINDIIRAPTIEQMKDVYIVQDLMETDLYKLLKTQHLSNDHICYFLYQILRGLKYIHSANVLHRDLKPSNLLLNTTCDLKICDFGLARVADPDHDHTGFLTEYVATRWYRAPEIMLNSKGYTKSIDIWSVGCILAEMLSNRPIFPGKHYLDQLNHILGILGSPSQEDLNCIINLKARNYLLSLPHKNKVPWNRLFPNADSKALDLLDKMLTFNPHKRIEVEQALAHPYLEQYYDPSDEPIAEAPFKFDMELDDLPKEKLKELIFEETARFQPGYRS

IC50 [nM] | SMILES
125000 | CN(C)C[C@H](NC(=O)N1Cc2nc(Nc3ccccc3)ncc2C1(C)C)c1ccccc1 [compound 168, (R)-N-(2-(dimethylamino)-1-phenylethyl)-5,5-dimethyl-2-(phenylamino)-5H-pyrrolo[3,4-d]pyrimidine-6(7H)-carboxamide]

same assay, conditions: […] ERK2, 200 nM ERKtide peptide, 35 μM ATP, 30 min preincubation; read-out: ERK2 IC50

SMILES | IC50 [nM]
CC1(C)c2cnc(NC3CCOCC3)nc2CN1C(=O)NCc1ccc(C#N)cc1 [compound 122, N-(4-cyanobenzyl)-5,5-dimethyl-2-((tetrahydro-2H-pyran-4-yl)amino)-5H-pyrrolo[3,4-d]pyrimidine-6(7H)-carboxamide] | 38
CC1(C)c2cnc(NC3CCOCC3)nc2CN1C(=O)NCc1ccc(Br)cc1 [compound 123, N-(4-bromobenzyl)-5,5-dimethyl-2-((tetrahydro-2H-pyran-4-yl)amino)-5H-pyrrolo[3,4-d]pyrimidine-6(7H)-carboxamide] | 7
CC1(C)c2cnc(NC3CCOCC3)nc2CN1C(=O)NCc1ccc(Cl)c(F)c1 [compound 124, N-(4-chloro-3-fluorobenzyl)-5,5-dimethyl-2-((tetrahydro-2H-pyran-4-yl)amino)-5H-pyrrolo[3,4-d]pyrimidine-6(7H)-carboxamide] | 6
COc1ccc(CNC(=O)N2Cc3nc(NC4CCOCC4)ncc3C2(C)C)cc1 [compound 125, N-(4-methoxybenzyl)-5,5-dimethyl-2-((tetrahydro-2H-pyran-4-yl)amino)-5H-pyrrolo[3,4-d]pyrimidine-6(7H)-carboxamide] | 56
CC1(C)c2cnc(NC3CCOCC3)nc2CN1C(=O)NCc1ccc(Cl)c(Cl)c1 [compound 126, N-(3,4-dichlorobenzyl)-5,5-dimethyl-2-((tetrahydro-2H-pyran-4-yl)amino)-5H-pyrrolo[3,4-d]pyrimidine-6(7H)-carboxamide] | 1
Cc1cccc([C@@H](CO)NC(=O)N2Cc3nc(NC4CCOCC4)ncc3C2(C)C)c1 [compound 127, (S)-N-(2-hydroxy-1-(m-tolyl)ethyl)-5,5-dimethyl-2-((tetrahydro-2H-pyran-4-yl)amino)-5H-pyrrolo[3,4-d]pyrimidine-6(7H)-carboxamide] | 16
CC1(C)c2cnc(NC3CCOCC3)nc2CN1C(=O)N[C@H](CO)c1cccc(F)c1 [compound 128, (S)-N-(1-(3-fluorophenyl)-2-hydroxyethyl)-5,5-dimethyl-2-((tetrahydro-2H-pyran-4-yl)amino)-5H-pyrrolo[3,4-d]pyrimidine-6(7H)-carboxamide] | 9
Cc1ccc(CNC(=O)N2Cc3nc(NC4CCOCC4)ncc3C2(C)C)cc1 [compound 129, 5,5-dimethyl-N-(4-methylbenzyl)-2-((tetrahydro-2H-pyran-4-yl)amino)-5H-pyrrolo[3,4-d]pyrimidine-6(7H)-carboxamide] | 21
CC1(C)c2cnc(NC3CCOCC3)nc2CN1C(=O)NCc1cccc(S(=O)(=O)C2CC2)c1 [compound 130, N-(3-(cyclopropylsulfonyl)benzyl)-5,5-dimethyl-2-((tetrahydro-2H-pyran-4-yl)amino)-5H-pyrrolo[3,4-d]pyrimidine-6(7H)-carboxamide] | 71
C[C@@H](NC(=O)N1Cc2nc(NC3CCOCC3)ncc2C1(C)C)c1cccc(S(C)(=O)=O)c1 [compound 131, (R)-5,5-dimethyl-N-(1-(3-(methylsulfonyl)phenyl)ethyl)-2-((tetrahydro-2H-pyran-4-yl)amino)-5H-pyrrolo[3,4-d]pyrimidine-6(7H)-carboxamide] | 9
CC1(C)c2cnc(NC3CCOCC3)nc2CN1C(=O)NCc1ccc(SC(F)(F)F)cc1 [compound 132, 5,5-dimethyl-2-((tetrahydro-2H-pyran-4-yl)amino)-N-(4-((trifluoromethyl)thio)benzyl)-5H-pyrrolo[3,4-d]pyrimidine-6(7H)-carboxamide] | 11
CC1(C)c2cnc(NC3CCOCC3)nc2CN1C(=O)NCc1ccc(Oc2ccccc2)cc1 [compound 133, 5,5-dimethyl-N-(4-phenoxybenzyl)-2-((tetrahydro-2H-pyran-4-yl)amino)-5H-pyrrolo[3,4-d]pyrimidine-6(7H)-carboxamide] | 11
CC1(C)c2cnc(NC3CCOCC3)nc2CN1C(=O)NCc1ccc([S+]([O-])C(F)(F)F)cc1 (stereo not shown) [compound 134, 5,5-dimethyl-2-((tetrahydro-2H-pyran-4-yl)amino)-N-(4-((trifluoromethyl)sulfinyl)benzyl)-5H-pyrrolo[3,4-d]pyrimidine-6(7H)-carboxamide] | 39
CC1(C)c2cnc(NC3CCOCC3)nc2CN1C(=O)NCc1cccc(C#N)c1 [compound 135, N-(3-cyanobenzyl)-5,5-dimethyl-2-((tetrahydro-2H-pyran-4-yl)amino)-5H-pyrrolo[3,4-d]pyrimidine-6(7H)-carboxamide] | 38
C[C@@H](NC(=O)N1Cc2nc(NC3CCOCC3)ncc2C1(C)C)c1ccc(C#N)cc1 [compound 136, (R)-N-(1-(4-cyanophenyl)ethyl)-5,5-dimethyl-2-((tetrahydro-2H-pyran-4-yl)amino)-5H-pyrrolo[3,4-d]pyrimidine-6(7H)-carboxamide] | 21
CC1(C)c2cnc(NC3CCOCC3)nc2CN1C(=O)NCc1ccc(S(=O)(=O)C(F)(F)F)cc1 [compound 137, 5,5-dimethyl-2-((tetrahydro-2H-pyran-4-yl)amino)-N-(4-((trifluoromethyl)sulfonyl)benzyl)-5H-pyrrolo[3,4-d]pyrimidine-6(7H)-carboxamide] | 19
CC1(C)c2cnc(NC3CCOCC3)nc2CN1C(=O)N[C@H](CCO)c1ccccc1 [compound 138, (R)-N-(3-hydroxy-1-phenylpropyl)-5,5-dimethyl-2-((tetrahydro-2H-pyran-4-yl)amino)-5H-pyrrolo[3,4-d]pyrimidine-6(7H)-carboxamide] | 73

Next, values leading:

IC50 [nM] | SMILES
32 | C[C@@H](NC(=O)N1Cc2nc(NC3CCOCC3)ncc2C1(C)C)c1ccc(S(C)(=O)=O)cc1 [compound 139, (R)-5,5-dimethyl-N-(1-(4-(methylsulfonyl)phenyl)ethyl)-2-((tetrahydro-2H-pyran-4-yl)amino)-5H-pyrrolo[3,4-d]pyrimidine-6(7H)-carboxamide]
14 | CC1(C)c2cnc(NC3CCOCC3)nc2CN1C(=O)N[C@@H]1CCN(Cc2ccccc2F)C1 [compound 146, (R)-N-(1-(2-fluorobenzyl)pyrrolidin-3-yl)-5,5-dimethyl-2-((tetrahydro-2H-pyran-4-yl)amino)-5H-pyrrolo[3,4-d]pyrimidine-6(7H)-carboxamide]
214 | CC1(C)c2cnc(NC3CCOCC3)nc2CN1C(=O)NC1CC(CO)CN(Cc2ccccc2F)C1 (stereo not shown) [compound 147, N-(1-(2-fluorobenzyl)-5-(hydroxymethyl)piperidin-3-yl)-5,5-dimethyl-2-((tetrahydro-2H-pyran-4-yl)amino)-5H-pyrrolo[3,4-d]pyrimidine-6(7H)-carboxamide]
37700 | CN1CCN(C(=O)N2Cc3nc(Nc4ccccc4)ncc3C2(C)C)CC1(C)C [compound 149, (5,5-dimethyl-2-(phenylamino)-5H-pyrrolo[3,4-d]pyrimidin-6(7H)-yl)(3,3,4-trimethylpiperazin-1-yl)methanone]
125000 | CN1CC(NC(=O)N2Cc3nc(Nc4ccccc4)ncc3C2(C)C)C1 [compound 153, 5,5-dimethyl-N-(1-methylazetidin-3-yl)-2-(phenylamino)-5H-pyrrolo[3,4-d]pyrimidine-6(7H)-carboxamide]
3030 | CN1CCN(C(=O)N2Cc3nc(Nc4ccccc4)ncc3C2(C)C)C(Cc2ccccc2)C1 (stereo not shown) [compound 154, (2-benzyl-4-methylpiperazin-1-yl)(5,5-dimethyl-2-(phenylamino)-5H-pyrrolo[3,4-d]pyrimidin-6(7H)-yl)methanone]
969 | CC1(C)c2cnc(Nc3ccccc3)nc2CN1C(=O)NC1CCN(Cc2ccccc2)C1 (stereo not shown) [compound 155, N-(1-benzylpyrrolidin-3-yl)-5,5-dimethyl-2-(phenylamino)-5H-pyrrolo[3,4-d]pyrimidine-6(7H)-carboxamide]
25000 | CN(C)CCNC(=O)N1Cc2nc(Nc3ccccc3)ncc2C1(C)C [compound 157, N-(2-(dimethylamino)ethyl)-5,5-dimethyl-2-(phenylamino)-5H-pyrrolo[3,4-d]pyrimidine-6(7H)-carboxamide]
41100 | CN1CCC(NC(=O)N2Cc3nc(Nc4ccccc4)ncc3C2(C)C)C1 (stereo not shown) [compound 158, 5,5-dimethyl-N-(1-methylpyrrolidin-3-yl)-2-(phenylamino)-5H-pyrrolo[3,4-d]pyrimidine-6(7H)-carboxamide]
343 | C[C@@H](NC(=O)N1Cc2nc(NC3CCOCC3)ncc2C1C1CC1)c1cccc(Cl)c1 (stereo partly drawn) [compound 171, N-((R)-1-(3-chlorophenyl)ethyl)-5-cyclopropyl-2-((tetrahydro-2H-pyran-4-yl)amino)-5H-pyrrolo[3,4-d]pyrimidine-6(7H)-carboxamide]
146 | C[C@@H](NC(=O)N1Cc2nc(NC3CCOCC3)ncc2C1C1CC1)c1cccc(Cl)c1 (stereo partly drawn) [compound 172, N-((R)-1-(3-chlorophenyl)ethyl)-5-cyclopropyl-2-((tetrahydro-2H-pyran-4-yl)amino)-5H-pyrrolo[3,4-d]pyrimidine-6(7H)-carboxamide]

target: RSK2 (Homo sapiens (Human), UniProt P51812); assay: In vitro inhibition of RSK2; assay type: biochemical; settings: in vitro activity on RSK2; where multiple measurements were made, each value is reported
Sequence (P51812 whole entry, species assumed): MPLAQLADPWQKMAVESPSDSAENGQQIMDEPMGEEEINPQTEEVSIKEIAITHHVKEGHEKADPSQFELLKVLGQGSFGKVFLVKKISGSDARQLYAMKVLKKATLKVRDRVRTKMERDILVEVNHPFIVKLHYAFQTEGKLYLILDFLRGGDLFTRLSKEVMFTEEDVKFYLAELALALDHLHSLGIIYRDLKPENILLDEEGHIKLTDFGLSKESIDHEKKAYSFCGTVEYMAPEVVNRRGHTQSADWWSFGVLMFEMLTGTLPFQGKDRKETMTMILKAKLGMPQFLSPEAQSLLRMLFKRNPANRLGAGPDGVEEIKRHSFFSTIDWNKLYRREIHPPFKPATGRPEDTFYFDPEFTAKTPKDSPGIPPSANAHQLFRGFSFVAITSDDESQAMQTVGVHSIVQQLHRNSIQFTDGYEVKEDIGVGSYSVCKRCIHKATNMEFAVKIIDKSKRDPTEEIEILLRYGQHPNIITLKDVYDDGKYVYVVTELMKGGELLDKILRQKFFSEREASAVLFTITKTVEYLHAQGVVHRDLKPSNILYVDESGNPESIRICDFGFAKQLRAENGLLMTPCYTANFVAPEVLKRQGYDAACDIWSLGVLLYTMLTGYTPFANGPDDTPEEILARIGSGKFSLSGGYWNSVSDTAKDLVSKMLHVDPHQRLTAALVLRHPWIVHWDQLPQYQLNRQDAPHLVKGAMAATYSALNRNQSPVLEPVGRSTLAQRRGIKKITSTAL
Experimental: The following Table 3 lists compounds that were tested for inhibition of RSK; the IC50 values are in micromolar units, and refer to inhibition of RSK1 and RSK2, respectively. Where multiple measurements were made, each value is reported.

IC50 [nM] | SMILES
611 | CN1CCN(C(=O)N2Cc3nc(Nc4ccccc4)ncc3C2(C)C)CC1(C)C [compound 149, (5,5-dimethyl-2-(phenylamino)-5H-pyrrolo[3,4-d]pyrimidin-6(7H)-yl)(3,3,4-trimethylpiperazin-1-yl)methanone]
1370 | CN1CC(NC(=O)N2Cc3nc(Nc4ccccc4)ncc3C2(C)C)C1 [compound 153, 5,5-dimethyl-N-(1-methylazetidin-3-yl)-2-(phenylamino)-5H-pyrrolo[3,4-d]pyrimidine-6(7H)-carboxamide]
1640 | CN1CCN(C(=O)N2Cc3nc(Nc4ccccc4)ncc3C2(C)C)C(Cc2ccccc2)C1 (stereo not shown) [compound 154, (2-benzyl-4-methylpiperazin-1-yl)(5,5-dimethyl-2-(phenylamino)-5H-pyrrolo[3,4-d]pyrimidin-6(7H)-yl)methanone]
1910 | CC1(C)c2cnc(Nc3ccccc3)nc2CN1C(=O)NC1CCN(Cc2ccccc2)C1 (stereo not shown) [compound 155, N-(1-benzylpyrrolidin-3-yl)-5,5-dimethyl-2-(phenylamino)-5H-pyrrolo[3,4-d]pyrimidine-6(7H)-carboxamide]
2570 | C[C@@H](NC(=O)N1Cc2nc(Nc3ccccc3)ncc2C1(C)C)c1ccccc1 [compound 156, (R)-5,5-dimethyl-2-(phenylamino)-N-(1-phenylethyl)-5H-pyrrolo[3,4-d]pyrimidine-6(7H)-carboxamide]
3850 | CN(C)CCNC(=O)N1Cc2nc(Nc3ccccc3)ncc2C1(C)C [compound 157, N-(2-(dimethylamino)ethyl)-5,5-dimethyl-2-(phenylamino)-5H-pyrrolo[3,4-d]pyrimidine-6(7H)-carboxamide]
3880 | CN1CCC(NC(=O)N2Cc3nc(Nc4ccccc4)ncc3C2(C)C)C1 (stereo not shown) [compound 158, 5,5-dimethyl-N-(1-methylpyrrolidin-3-yl)-2-(phenylamino)-5H-pyrrolo[3,4-d]pyrimidine-6(7H)-carboxamide]
> 25000 | C[C@H](NC(=O)N1Cc2nc(Nc3ccccc3)ncc2C1(C)C)c1ccccc1 [compound 169, (S)-5,5-dimethyl-2-(phenylamino)-N-(1-phenylethyl)-5H-pyrrolo[3,4-d]pyrimidine-6(7H)-carboxamide]
